Test results as given in patent US20260200849A1, “CATIONIC LIPIDS AND PREPARATION METHOD THEREOF” (RiboX Therapeutics HK Limited, priority 2024, published 2026).

Columns and labels:
[1] = LNP size and polydispersity index (PDI) by dynamic light scattering (Zetasizer); format: physicochemical; conditions: for Size (nm): Formulation No. 001 (Ionizable lipid:DSPC:cholesterol:DMG-PEG2000 = 50:10:38.5:1.5, N/P 6), RNA No. 331; for PDI: Formulation No. 001, RNA No. 331
Experimental: (§1) The LNP size and polydispersity index (PDI), determined by dynamic light scattering (DLS), and zeta potential were measured by a Zetasizer machine (Malvern). RNA concentration and encapsulation efficacy (EE %) were analyzed by the Quant-IT Ribogreen kit by calculating the percentage encapsulation at 100%—(RNA-LNPs/RNA-LNPs with Triton X-100).

[2] = RNA encapsulation efficacy (EE %) by Quant-IT Ribogreen kit; format: physicochemical; conditions: LNP, Formulation No. 001, RNA No. 331
Experimental: as §1

Hep G2 cells [3] = assay: In vitro expression: luciferase activity in Hep G2 cells transfected with RNA-LNPs; format: cell-based; conditions: Formulation No. 001, RNA No. 331 (firefly-luciferase), 100 ng/mL RNA-LNPs, 72 hours post transfection
Experimental: 2E5 Hep G2 cells were transfected with 100 ng/mL of RNA-LNPs encoding for firefly-luciferase. At 72 hours post transfection, the cells were washed and lysed. The luciferase expression (2-well repeat) was determined in the cell lysates with the luciferase assay reagent kit (Promega), according to the kit protocol, luciferase activity was measured by a luminometer.

Hep G2 cells [4] = assay: In vitro toxicity: Hep G2 cell viability by CellTiter-Glo; format: cell-based; conditions: Formulation No. 001, RNA No. 331, 1 μg/mL RNA-LNPs, 72 hours post transfection, cell only = 100%
Experimental: 2E5 Hep G2 cells were transfected with 1 μg/mL RNA-LNPs. At 72 hours post transfection, cell viability (2-well repeat) was determined with the CellTiter-Glo® reagent kit, according to the kit protocol, measured by a luminometer. Cell only as control (100%).
The cell viability was calculated according to the following formula: […]

Balb/c mice = assay: In vivo expression by IV, 0.05 mg/kg luciferase RNA-LNPs, IVIS luminescence; conditions: Formulation No. 001, RNA No. 331; female Balb/c mice, 0.05 mg*kg−1 intravenous, 24-hours post injection
Method in brief: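 IVIS bioluminescence was read after IP luciferin (15 mg/ml): whole-body at 24 and 72 h, or whole-body/liver/spleen at 24 h. Dosing was a single IV injection of 0.05 mg*kg−1 RNA-LNPs encoding firefly luciferase into 7-8 week old female Balb/c mice, N=3.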

MCP-1 = assay: In vivo tolerability by IV: serum MCP-1 by Luminex; set-up: species or system C57BL/6J mice; conditions: Formulation No. 001, RNA No. 331, male C57BL/6J mice, 1.0 mg*kg/1 intravenous; for MCP-1 at 2 h: 2 hours post injection; for MCP-1 at 24 h: 24 hours post injection
Method in brief: (§2)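 Male C57BL/6J mice aged 6-8 weeks (N=3) received 1.0 mg*kg−1 firefly-luciferase RNA-LNPs intravenously, with PBS as negative control. Serum taken at 2 and 24 h post-injection was assayed for MCP-1 and IL-6 by Luminex.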

IL-6 = assay: In vivo tolerability by IV: serum IL-6 by Luminex; set-up: species or system C57BL/6J mice; conditions: Formulation No. 001, RNA No. 331, male C57BL/6J mice, 1.0 mg*kg/1 intravenous; for IL-6 at 2 h: 2 hours post injection; for IL-6 at 24 h: 24 hours post injection
Method in brief: as §2

C57BL/6J mice = assay: In vivo expression by IV, 1.0 mg/kg luciferase RNA-LNPs, whole-body and organ IVIS luminescence; conditions: Formulation No. 001, RNA No. 331; male C57BL/6J mice, 1.0 mg*kg−1 intravenous, 24-hours post injection
Method in brief: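 Male C57BL/6J mice, 6-8 weeks old (N=3), received 1.0 mg*kg−1 firefly-luciferase RNA-LNPs IV. At 24 h post-dose, luciferin (15 mg/ml) was given IP, and whole-body, liver, spleen, kidney, small and large intestine luminescence was imaged by IVIS.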

## CCCCC/C=C\C/C=C\CCCCCCCCOC(=O)C(COC(=O)NCCN1CCCCC1)NC(=O)OCCCCCCCCOC(=O)C(CCCCCC)CCCCCCCC (stereo not drawn) [Lipid 918]
[1]
  Size (nm): 69.23 nm
  PDI: 0.01
[2]
  EE (%): 93.47%
Hep G2 cells [3]
  In vitro Expression (Mean): 1.25E+06
Hep G2 cells [4]
  In vitro cell viability (%) (Mean): 85.92%
Balb/c mice
  Liver (p/s) (Mean): 4.14E+08 p/s
  Spleen (p/s) (Mean): 7.74E+07 p/s
  Whole body (p/s) (Mean): 1.21E+09 p/s
MCP-1
  MCP-1 at 2 h: 880 pg/mL
  MCP-1 at 24 h: 300 pg/mL
IL-6
  IL-6 at 2 h: 9.3 pg/mL
  IL-6 at 24 h: 4.73 pg/mL
C57BL/6J mice
  Kidney (p/s): 1.99E+07 p/s
  Large intestine (p/s): 8.43E+07 p/s
  Liver (p/s): 4.67E+09 p/s
  Small intestine (p/s): 6.30E+08 p/s
  Spleen (p/s): 3.95E+08 p/s
  Whole body (p/s): 5.08E+09 p/s

## CCCCC/C=C\C/C=C\CCCCCCCCOC(=O)C(COC(=O)NCCN1CCCCCC1)NC(=O)OCCCCCCCCOC(=O)C(CCCCCC)CCCCCCCC (stereo not drawn) [Lipid 919]
[1]
  Size (nm): 66.17 nm
  PDI: 0.02
[2]
  EE (%): 96.20%
Hep G2 cells [3]
  In vitro Expression (Mean): 4.10E+05
Hep G2 cells [4]
  In vitro cell viability (%) (Mean): 82.59%
Balb/c mice
  Liver (p/s) (Mean): 5.47E+08 p/s
  Spleen (p/s) (Mean): 2.28E+08 p/s
  Whole body (p/s) (Mean): 1.86E+09 p/s
MCP-1
  MCP-1 at 2 h: 1290 pg/mL
  MCP-1 at 24 h: 256 pg/mL
IL-6
  IL-6 at 2 h: 25.8 pg/mL
  IL-6 at 24 h: 5.07 pg/mL
C57BL/6J mice
  Kidney (p/s): 1.88E+07 p/s
  Large intestine (p/s): 1.29E+08 p/s
  Liver (p/s): 3.54E+09 p/s
  Small intestine (p/s): 6.16E+08 p/s
  Spleen (p/s): 6.74E+08 p/s
  Whole body (p/s): 6.01E+09 p/s

## CCCCCCCCCCCOC(=O)CCCCCOC(=O)C(COC(=O)NCCN1CCCCC1)NC(=O)OCCCCCCCCOC(=O)C(CCCCCC)CCCCCCCC (stereo not drawn) [Lipid 923]
[1]
  Size (nm): 81.29 nm
  PDI: 0.03
[2]
  EE (%): 88.91%
Hep G2 cells [3]
  In vitro Expression (Mean): 7.34E+05
Hep G2 cells [4]
  In vitro cell viability (%) (Mean): 88.59%
Balb/c mice
  Liver (p/s) (Mean): 4.09E+08 p/s
  Spleen (p/s) (Mean): 5.03E+07 p/s
  Whole body (p/s) (Mean): 1.57E+09 p/s
MCP-1
  MCP-1 at 2 h: 639 pg/mL
  MCP-1 at 24 h: 75 pg/mL
IL-6
  IL-6 at 2 h: 11.9 pg/mL
  IL-6 at 24 h: 2.37 pg/mL
C57BL/6J mice
  Kidney (p/s): 5.13E+06 p/s
  Large intestine (p/s): 5.94E+07 p/s
  Liver (p/s): 1.44E+09 p/s
  Small intestine (p/s): 3.01E+08 p/s
  Spleen (p/s): 3.85E+08 p/s
  Whole body (p/s): 2.42E+09 p/s

## CCCCCCCCC(CCCCCC)C(=O)OCCCCCCCCOC(=O)NC(COC(=O)NCCN1CCCCC1)C(=O)OCCCCCCCCCCC(=O)OCCCCCC (stereo not drawn) [Lipid 928]
[1]
  Size (nm): 75.43 nm
  PDI: 0.01
[2]
  EE (%): 87.36%
Hep G2 cells [3]
  In vitro Expression (Mean): 4.72E+05
Hep G2 cells [4]
  In vitro cell viability (%) (Mean): 95.03%
Balb/c mice
  Liver (p/s) (Mean): 2.35E+08 p/s
  Spleen (p/s) (Mean): 4.80E+07 p/s
  Whole body (p/s) (Mean): 9.65E+08 p/s
MCP-1
  MCP-1 at 2 h: 574 pg/mL
  MCP-1 at 24 h: 74.9 pg/mL
IL-6
  IL-6 at 2 h: 11.9 pg/mL
  IL-6 at 24 h: 30.5 pg/mL
C57BL/6J mice
  Kidney (p/s): 8.93E+06 p/s
  Large intestine (p/s): 2.23E+07 p/s
  Liver (p/s): 2.41E+09 p/s
  Small intestine (p/s): 1.61E+08 p/s
  Spleen (p/s): 3.25E+08 p/s
  Whole body (p/s): 2.17E+09 p/s
